Test results: ChEMBL document CHEMBL1143346, “Solid-phase parallel synthesis and SAR of 4-amidofuran-3-one inhibitors of cathepsin S: effect of sulfonamides P3 substituents on potency and selectivity” (Bioorg Med Chem, 2009)

How the values were obtained:
Cathepsin S = Cathepsin S (Homo sapiens, UniProt P25774); assay: Inhibition of human recombinant cathepsin S expressed in baculovirus by fluorescence assay
Cathepsin K = target: T1, Cathepsin K (Homo sapiens, UniProt P43235); assay: Inhibition of human recombinant cathepsin K expressed in baculovirus by fluorescence assay
T1 sequence (P43235 whole entry): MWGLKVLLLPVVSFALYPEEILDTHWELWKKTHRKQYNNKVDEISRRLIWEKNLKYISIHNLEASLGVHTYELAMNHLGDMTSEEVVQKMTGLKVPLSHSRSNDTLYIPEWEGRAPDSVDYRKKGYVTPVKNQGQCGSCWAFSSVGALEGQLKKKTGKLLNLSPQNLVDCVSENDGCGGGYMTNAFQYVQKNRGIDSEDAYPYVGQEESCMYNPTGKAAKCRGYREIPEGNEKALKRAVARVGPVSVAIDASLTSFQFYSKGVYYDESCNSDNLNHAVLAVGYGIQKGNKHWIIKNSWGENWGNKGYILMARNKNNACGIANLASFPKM

Procathepsin L = Procathepsin L (Homo sapiens, UniProt P07711); assay: Inhibition of human cathepsin L by fluorescence assay
Procathepsin L, sequence (P07711 whole entry): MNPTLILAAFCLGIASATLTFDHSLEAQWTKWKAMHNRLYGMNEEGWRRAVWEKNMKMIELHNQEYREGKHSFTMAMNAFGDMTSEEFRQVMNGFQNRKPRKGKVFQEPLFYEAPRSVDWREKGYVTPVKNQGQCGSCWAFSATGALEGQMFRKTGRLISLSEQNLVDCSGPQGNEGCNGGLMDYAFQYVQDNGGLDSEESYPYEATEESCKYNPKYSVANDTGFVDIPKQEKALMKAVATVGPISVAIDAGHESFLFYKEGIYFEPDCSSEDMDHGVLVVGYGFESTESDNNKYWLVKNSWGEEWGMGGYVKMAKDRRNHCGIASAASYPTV

Cathepsin S, sequence (P25774 whole entry): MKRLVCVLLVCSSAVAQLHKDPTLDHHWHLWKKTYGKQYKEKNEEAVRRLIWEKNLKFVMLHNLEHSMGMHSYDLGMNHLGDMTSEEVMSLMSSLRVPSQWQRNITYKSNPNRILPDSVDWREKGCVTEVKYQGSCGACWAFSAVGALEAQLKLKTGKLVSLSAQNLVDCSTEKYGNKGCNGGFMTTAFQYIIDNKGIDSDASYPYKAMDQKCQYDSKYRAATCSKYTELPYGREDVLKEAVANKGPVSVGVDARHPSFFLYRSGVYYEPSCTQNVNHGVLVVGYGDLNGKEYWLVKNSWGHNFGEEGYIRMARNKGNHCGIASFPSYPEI

Structure (SMILES)	Ki (Cathepsin S) [µM]	Ki (Cathepsin K) [µM]	Ki (Procathepsin L) [µM]
CC[C@@H]1OCC(=O)[C@H]1NC(=O)[C@H](CC1(C)CCCC1)NC(=O)c1ccc(NS(=O)(=O)c2cccnc2Cl)cc1	0.0059	0.8	23
CC[C@@H]1OCC(=O)[C@H]1NC(=O)[C@H](CC1(C)CCCC1)NC(=O)c1ccc(NS(=O)(=O)c2ncc(C)s2)cc1	0.0086	2.3	17
CC[C@@H]1OCC(=O)[C@H]1NC(=O)[C@H](CC(C)(C)C)NC(=O)c1ccsc1	0.031	0.318	10
CC[C@@H]1OCC(=O)[C@H]1NC(=O)[C@H](CC1(C)CCCC1)NC(=O)c1ccc(NS(C)(=O)=O)cc1	0.0026	0.29	12
CC[C@@H]1OCC(=O)[C@H]1NC(=O)[C@H](CC1(C)CCCC1)NC(=O)c1ccc(NS(=O)(=O)c2cccc(OC)c2)cc1	0.001	0.27	14
CC[C@@H]1OCC(=O)[C@H]1NC(=O)[C@H](CC1(C)CCCC1)NC(=O)c1ccc(NS(=O)(=O)CC)cc1	0.0019	0.47	17
CC[C@@H]1OCC(=O)[C@H]1NC(=O)[C@H](CC1(C)CCCC1)NC(=O)c1ccc(NS(=O)(=O)c2ccc(N)cc2)cc1	0.0013	0.95	9.1
CC[C@@H]1OCC(=O)[C@H]1NC(=O)[C@H](CC1(C)CCCC1)NC(=O)c1ccc(NS(=O)(=O)C(F)(F)F)cc1	0.0083	1.2	15
CC[C@@H]1OCC(=O)[C@H]1NC(=O)[C@H](CC1(C)CCCC1)NC(=O)c1ccc(NS(=O)(=O)c2nc(C)cs2)cc1	0.013	3	27
CC[C@@H]1OCC(=O)[C@H]1NC(=O)[C@H](CC1(C)CCCC1)NC(=O)c1ccc(NS(=O)(=O)N(C)C)cc1	0.0053	0.3	16
CC[C@@H]1OCC(=O)[C@H]1NC(=O)[C@H](CC1(C)CCCC1)NC(=O)c1ccc(NS(=O)(=O)c2ccccc2)c(C)c1	0.004	0.73	2.3
CC[C@@H]1OCC(=O)[C@H]1NC(=O)[C@H](CC1(C)CCCC1)NC(=O)c1ccc(NS(=O)(=O)c2nc(C(C)C)cs2)cc1	0.0057	1.7	9.1
CC[C@@H]1OCC(=O)[C@H]1NC(=O)[C@H](CC1(C)CCCC1)NC(=O)c1ccc(NS(=O)(=O)Cc2ccccc2)cc1	0.031	1.7	15
CC[C@@H]1OCC(=O)[C@H]1NC(=O)[C@H](CC1(C)CCCC1)NC(=O)c1ccc(NS(=O)(=O)c2ccccn2)cc1	0.0023	0.45	13
CC[C@@H]1OCC(=O)[C@H]1NC(=O)[C@H](CC1(C)CCCC1)NC(=O)c1ccc(NS(C)(=O)=O)c(C)c1	0.0049	0.24	2
CC[C@@H]1OCC(=O)[C@H]1NC(=O)[C@H](CC1(C)CCCC1)NC(=O)c1ccc(NS(C)(=O)=O)c(Cl)c1	0.0056	0.84	0.97
CC[C@@H]1OCC(=O)[C@H]1NC(=O)[C@H](CC1(C)CCCC1)NC(=O)c1ccc(NS(C)(=O)=O)c(C(C)=O)c1	0.057	0.75	9.5
CC[C@@H]1OCC(=O)[C@H]1NC(=O)[C@H](CC1(C)CCCC1)NC(=O)c1ccc(NS(=O)(=O)c2cccc(F)c2)cc1	0.0034	0.52	7.8
CC[C@@H]1OCC(=O)[C@H]1NC(=O)[C@H](CC1(C)CCCC1)NC(=O)c1ccc(NS(C)(=O)=O)c(OC)c1	0.026	0.56	7.2
CC[C@@H]1OCC(=O)[C@H]1NC(=O)[C@H](CC1(C)CCCC1)NC(=O)c1ccc(NS(=O)(=O)c2ccccc2)nc1	0.056	2.2	31
CC[C@@H]1OCC(=O)[C@H]1NC(=O)[C@H](CC1(C)CCCC1)NC(=O)c1ccc(NS(=O)(=O)C(C)C)cc1	0.0029	0.5	15
CC[C@@H]1OCC(=O)[C@H]1NC(=O)[C@H](CC1(C)CCCC1)NC(=O)c1ccc(NS(C)(=O)=O)nc1	0.063	1.2	14
CC[C@@H]1OCC(=O)[C@H]1NC(=O)[C@H](CC1(C)CCCC1)NC(=O)c1cccc(NS(C)(=O)=O)c1	0.012	1.5	2.5
CC[C@@H]1OCC(=O)[C@H]1NC(=O)[C@H](CC1(C)CCCC1)NC(=O)c1ccc(NS(=O)(=O)c2cnccc2C)cc1	0.0009	0.26	8.7

Structure (SMILES)	Ki (Cathepsin S) [µM]	Ki (Cathepsin K) [µM]	Ki (Procathepsin L) [µM]
CC[C@@H]1OCC(=O)[C@H]1NC(=O)[C@H](CC1(C)CCCC1)NC(=O)c1ccc(NS(=O)(=O)c2ccc(OC)cc2)cc1	0.0033	0.5	11
CC[C@@H]1OCC(=O)[C@H]1NC(=O)[C@H](CC1(C)CCCC1)NC(=O)c1ccc(NS(=O)(=O)c2nccn2C)cc1	0.0045	0.64	24
CC[C@@H]1OCC(=O)[C@H]1NC(=O)[C@H](CC1(C)CCCC1)NC(=O)c1ccc(NS(=O)(=O)C2CC2)cc1	0.0024	0.44	12
CC[C@@H]1OCC(=O)[C@H]1NC(=O)[C@H](CC1(C)CCCC1)NC(=O)c1ccc(NS(=O)(=O)c2ccncc2)cc1	0.0027	1.1	13
CC[C@@H]1OCC(=O)[C@H]1NC(=O)[C@H](CC1(C)CCCC1)NC(=O)c1ccc(NS(=O)(=O)c2ccccc2C#N)cc1	0.0008	0.82	8.5
CC[C@@H]1OCC(=O)[C@H]1NC(=O)[C@H](CC1(C)CCCC1)NC(=O)c1ccc(NS(=O)(=O)c2ccccc2F)cc1	0.0038	0.98	11
CC[C@@H]1OCC(=O)[C@H]1NC(=O)[C@H](CC1(C)CCCC1)NC(=O)c1ccc(NS(=O)(=O)c2ccccc2)cc1	0.0008	0.43	11
CC[C@@H]1OCC(=O)[C@H]1NC(=O)[C@H](CC1(C)CCCC1)NC(=O)c1ccc(NS(=O)(=O)c2cccnc2)cc1	0.0021	0.57	14
CC[C@@H]1OCC(=O)[C@H]1NC(=O)[C@H](CC1(C)CCCC1)NC(=O)c1ccc(NS(=O)(=O)c2ccccc2C)cc1	0.0039	0.55	8.4
CC[C@@H]1OCC(=O)[C@H]1NC(=O)[C@H](CC1(C)CCCC1)NC(=O)c1ccc(NS(=O)(=O)C2CCCCC2)cc1	0.18	0.95	64
CC[C@@H]1OCC(=O)[C@H]1NC(=O)[C@H](CC1(C)CCCC1)NC(=O)c1ccc(NS(=O)(=O)c2ccc(C#N)cc2)cc1	0.0011	0.95	7.9
CC[C@@H]1OCC(=O)[C@H]1NC(=O)[C@H](CC1(C)CCCC1)NC(=O)c1ccc(NS(=O)(=O)c2ccccc2)c(Cl)c1	0.012	1.6	1.1
CC[C@@H]1OCC(=O)[C@H]1NC(=O)[C@H](CC1(C)CCCC1)NC(=O)c1ccc(NS(C)(=O)=O)cc1C	0.03	1.9	23
CC[C@@H]1OCC(=O)[C@H]1NC(=O)[C@H](CC1(C)CCCC1)NC(=O)c1ccc(NS(=O)(=O)c2sc(C)nc2C)cc1	0.0007	1.8	16
CC[C@@H]1OCC(=O)[C@H]1NC(=O)[C@H](CC1(C)CCCC1)NC(=O)c1ccc(NS(C)(=O)=O)cc1OC	0.33	5	29
CC[C@@H]1OCC(=O)[C@H]1NC(=O)[C@H](CC1(C)CCCC1)NC(=O)c1ccc(NS(=O)(=O)c2ccc(F)cc2)cc1	0.002	0.37	5.9
CC[C@@H]1OCC(=O)[C@H]1NC(=O)[C@H](CC1(C)CCCC1)NC(=O)c1ccc(NS(=O)(=O)c2cccs2)cc1	0.0023	1	13
CCCCS(=O)(=O)Nc1ccc(C(=O)N[C@@H](CC2(C)CCCC2)C(=O)N[C@@H]2C(=O)CO[C@H]2CC)cc1	0.0034	1.5	21
CC[C@@H]1OCC(=O)[C@H]1NC(=O)[C@H](CC1(C)CCCC1)NC(=O)c1ccc(S(=O)(=O)NC)cc1	0.14	0.42	27
CC[C@@H]1OCC(=O)[C@H]1NC(=O)[C@H](CC1(C)CCCC1)NC(=O)c1ccc(NS(=O)(=O)c2cccc(C#N)c2)cc1	0.0006	0.73	6.8
CC[C@@H]1OCC(=O)[C@H]1NC(=O)[C@H](CC1(C)CCCC1)NC(=O)c1ccc(N(C)S(C)(=O)=O)cc1	0.11	0.098	11
CC[C@@H]1OCC(=O)[C@H]1NC(=O)[C@H](CC1(C)CCCC1)NC(=O)c1cccc(S(=O)(=O)NC)c1	0.19	23	15
CC[C@@H]1OCC(=O)[C@H]1NC(=O)[C@H](CC1(C)CCCC1)NC(=O)c1ccc(NS(C)(=O)=O)c(F)c1	0.016	0.7	7.8
